# Assay results taken from patent US8202910B2 (Sequella, Inc., priority 2006, dated 2012).
# Values joined by “and” are separate entries in the source; they are usually repeats but may differ in a detail not shown here. Equal entries are not always repeated. Where two headings read alike, the source gives them in different places.
# Columns and labels:
# [1] = test system: H37Rv strain of Mycobacterium tuberculosis; experiment: microbe, parasite or virus in culture; format: cell-based
# cells = experiment: LD50 for selectivity index (Table 10); format: cell-based, Mycobacterium tuberculosis; conditions: for SI (Selectivity Index): LD50 : MIC
# Source text: Table 10 lists MIC and LD50 data for selected compounds. […] Table 11 lists MIC data for purified substituted ethylene diamines in comparison to ethambutol (EMB).
# [2] = test system: monkey kidney cells (Vero); experiment: In vitro toxicity, Vero cells; format: cell-based; conditions: Primates
# Procedure: Twenty six compounds (including 37, 59 and 109) were tested in an in vitro model of toxicity using monkey kidney cells (Vero) and human cervical cancer cells (HeLa) using methods well known to those skilled in the art. The data from this toxicity testing and the MIC data were used to calculate a selectivity index (SI), the ratio of IC50:MIC (Table 15). Selectivity Indexes were ranging from 1.76 to 16.67.
# [3] = Mycobacterium tuberculosis, H37RV, read-out: MIC
# [4] = Mycobacterium tuberculosis, H37RV, Table 10, from uM and MW, read-out: MIC
# [5] = Mycobacterium tuberculosis, H37RV, Table 10, read-out: MIC
# [6] = concentration at which 50% of the cells are killed
# [7] = Mycobacterium tuberculosis, H37RV, Table 15, read-out: MIC
SMILES,MIC [1],"MIC [1, 3] [µM]",other results
"c1ccc(C2CC2NCCNC2CCCCCCC2)cc1 (stereo not drawn) [Compound 63, N-(Cyclooctyl)-N′-trans-(2-phenylcyclopropyl)ethane-1,2-diamine]",31.25 µM,62.5,–
"CC(C)(C)CC(C)(C)NCCNCC(c1ccccc1)c1ccccc1 [Compound 33, N-(2,2-Diphenylethyl)-N′-(1,1,3,3-tetramethylbutyl)-ethane-1,2-diamine]",31.25 µM,62.5,–
"C1CCCC(NCCNC2CCCCCCC2)CCC1 [Compound 103, N,N′-Bis(cyclooctyl)ethane-1,2-diamine]",62.5 µM,31.2,–
"CC[C@@H](CO)NCCNC1CCCCCCC1 [Compound 56, N-(Cyclooctyl)-N′-(2S)-[2-(1-hydroxybutyl)]ethane-1,2-diamine]",>500 µM,500,–
"C[C@@H]1C2C[C@@H](C[C@H]1NCCNCC1CCC3C[C@@H]1C3(C)C)C2(C)C (stereo partly drawn) [Compound 47, N-(−)-cis-Myrtanyl-N′-(1R, 2R, 3R, 5S)-(−)-isopinocampheylethane-1,2-diamine]",–,–,"MIC [1, 4]: 7.06 µg/mL; MIC [1, 5]: 15.6 µM; SI (Selectivity Index) (cells): 1.6; LD50 (cells; [6]): 25 µM; LD50 (cells; from uM and MW): 11.3 µg/mL"
"CC1CCCC(NCCNC[C@@H]2CCC3C[C@@H]2C3(C)C)C1C (stereo partly drawn) [Compound 41, N-(−)-cis-(Myrtanyl)-N′-(2,3-dimethylcyclohexyl)ethane-1,2-diamine]",–,–,"IC50 [2]: 19 µM; MIC [1, 7]: 3.13 µM"
"C[C@@H]1C2C[C@@H](C[C@H]1NCCNC(c1ccccc1)c1ccccc1)C2(C)C [Compound 71, N-(1,1-Diphenylmethyl)-N′-(1R, 2R, 3R, 5S)-(−)-isopinocampheylethane-1,2-diamine]",31.25 µM,62.5,–
"c1ccc(C2CC2NCCNC2C3CC4CC(C3)CC2C4)cc1 (stereo not drawn) [Compound 64, N-(2-Adamantyl)-N′- trans-(2-phenylcyclopropyl)ethane-1,2-diamine]",–,31.2,–
COc1ccc(CCNCCNCC23CC4CC(CC(C4)C2)C3)cc1OC [Compound 4],62.5 µM,125,–
"C[C@@H]1C2C[C@@H](C[C@H]1NCCNCCC(c1ccccc1)c1ccccc1)C2(C)C [Compound 66, N-(3,3-Diphenylpropyl)-N′-(1R, 2R, 3R, 5S)-(−)-isopinocampheylethane-1,2-diamine]",–,–,"IC50 [2]: 28 µM; MIC [1, 7]: 15.6 µM"
CCC(CO)NCCN[C@@H]1C[C@@H]2CC([C@H]1C)C2(C)C (mixture of isomers) [Compound 68],–,500,–
"c1ccc(C(CNCCNCC23CC4CC(CC(C4)C2)C3)c2ccccc2)cc1 [Compound 34, N-(2,2-Diphenylethyl)-N′-(1-methyladamantyl)ethane-1,2-diamine]",–,–,"MIC [1, 4]: 3.97 µg/mL; MIC [1, 5]: 7.81 µM; SI (Selectivity Index) (cells): 4.096; LD50 (cells; [6]): 32 µM; LD50 (cells; from uM and MW): 16.256 µg/mL"
"c1ccc(C2CC2NCCNC23CC4CC(CC(C4)C2)C3)cc1 (stereo not drawn) [Compound 65, N-(1-Adamantyl)-N′- trans-(2-phenylcyclopropyl)ethane-1,2-diamine]",31.25 µM,15.6,"MIC [1, 4]: 6.72 µg/mL; MIC [1, 5]: 15.6 µM; SI (Selectivity Index) (cells): 3.84; LD50 (cells; [6]): 60 µM; LD50 (cells; from uM and MW): 25.8 µg/mL"
"C=CCN(CCNCCc1ccccc1OC)C1CCCC1 [Compound 76, N-Allyl-N-cyclopentyl-N′-[2-(2-methoxyphenyl)ethyl]ethane-1,2-diamine]",31.25 µM,62.5,–
"C1CCCC(NCCNCC23CC4CC(CC(C4)C2)C3)CCC1 [Compound 55, N-(Cyclooctyl)-N′-(1-methyladamantyl)ethane-1,2-diamine]",15.625 µM and 15.6 µM,15.6,"IC50 [2]: 34 µM; MIC [1, 7]: 15.6 µM"
"c1ccc2c(c1)CC(NCCNC1C3CC4CC(C3)CC1C4)C2 (centres unmarked) [Compound 78, N-2-Adamantyl-N′-2,3-dihydro-1H-inden-2-yl-ethane-1,2-diamine]",–,–,"IC50 [2]: 130 µM; MIC [1, 7]: 15.6 µM"
"CC1CCCC(NCCNCC(c2ccccc2)c2ccccc2)C1C (centres unmarked) [Compound 29, N-(2,2-Diphenylethyl)-N′-(2,3-dimethylcylcohexyl)ethane-1,2-diamine]",31.25 µM,62.5,–
"CC(CNCC(c1ccccc1)c1ccccc1)NCC1CCC2C[C@@H]1C2(C)C (stereo partly drawn) [Compound 38, N-(−)-cis-(Myrtanyl)-N′-(2,2-diphenylethyl)propyl-1,2-diamine]",–,–,"IC50 [2]: 33 µM; MIC [1, 7]: 6.25 µM"
CC(NCCNC1CCCCCCC1)c1cccc2ccccc12 (centres unmarked) [Compound 61],31.25 µM,62.5,–
CC(CNCCC(c1ccccc1)c1ccccc1)NCC12CC3CC(CC(C3)C1)C2 (centres unmarked) [Compound 6],–,–,"MIC [1, 4]: 4.19 µg/mL; MIC [1, 5]: 7.81 µM; SI (Selectivity Index) (cells): 2.56; LD50 (cells; [6]): 20 µM; LD50 (cells; from uM and MW): 10.72 µg/mL"
"C(CNC1C2CC3CC(C2)CC1C3)NC1C2CC3CC(C2)CC1C3 (centres unmarked) [SQBisAd, Bis(2-Adamantyl)ethylenediamine]",–,–,MIC (Minimal Inhibitory Concentration) compared with compound 109 [1]: equal or better than compound 109
"C=CCN(CCNCCc1ccccc1Cl)C1CCCC1 [Compound 118, N-2-(2-Chlorophenyl)ethyl-N′-allyl-N′-(cyclopentyl)ethane-1,2-diamine]",62.5 µM,31.2,–
"CC(CNC[C@@H]1CCC2C[C@@H]1C2(C)C)NCC1CCC2C[C@@H]1C2(C)C (stereo partly drawn) [Compound 125, N,N′-bis-(−)-cis-Myrtanylpropane-1,2-diamine]",15.625 µM,15.6,–
"COc1ccc(CCNCC(NCCc2ccc(F)cc2)c2ccccc2)cc1 (centres unmarked) [Compound 164, N^1-[2-(4-fluorophenyl)ethyl]-N^2-[2-(4-Methoxy)phenylethyl)-1-phenylethane-1,2-diamine]",125 µM,62.5,–
"COc1ccccc1CCNCCN[C@@H]1C[C@@H]2CC([C@H]1C)C2(C)C [Compound 151, N-[2-(2-Methoxy)phenylethyl]-N′-(1R, 2R, 3R, 5S)-(−)-isopinocampheyl-ethane-1,2-diamine]",7.813 µM,15.6,"MIC [1, 4]: 3.52 µg/mL; MIC [1, 5]: 7.81 µM; SI (Selectivity Index) (cells): 5.248; LD50 (cells; [6]): 41 µM; LD50 (cells; from uM and MW): 18.45 µg/mL"
CCOCCCNCCNCC(c1ccccc1)c1ccccc1 [Compound 107],250 µM,500,–
"CC1CC(C)CN(CCNCCC(c2ccccc2)c2ccccc2)C1 (centres unmarked) [Compound 15, 1-{2-[N-(3,3-Diphenylpropyl)]-aminoethyl}-3,5-dimethyl-piperidine]",250 µM and 500 µM,> 500,–
"Fc1cccc(CCNCCNCCc2ccccc2Cl)c1 [Compound 119, N-2-(2-Chlorophenyl)ethyl-N′-[2-(3-fluorophenyl)-ethyl]ethane-1,2-diamine]",62.5 µM,125,–
"CC(NCCNCC(c1ccccc1)c1ccccc1)C(O)c1ccc(O)c(O)c1 (stereo not drawn) [Compound 134, N-[2-(N′-2,2-Diphenylethyl)-aminoethyl]-(−)-3,4-dihydroxynorephedrine]",500 µM,> 500,–
"C[C@@H]1[C@@H](NCCNC2CCCCCCC2)C[C@H]2C[C@@H]1C2(C)C [Compound 53, N-Cyclooctyl-N′-(1S, 2S, 3S, 5R)-(+)-isopinocampheyl-ethane-1,2-diamine]",–,31.2,–
